Reference: patent US11819532B2, “Peptide macrocycles against Acinetobacter baumannii” (Hoffmann-La Roche Inc., priority 2018, dated 2023)

What was measured:
A. baumannii ATCC 17978 = assay: 50% growth inhibitory concentration (IC50) determination, antimicrobial susceptibility testing; assay type: cell-based; conditions: Acinetobacter baumannii; 50% growth inhibition, A. baumannii strain ATCC17978, Iso-Sensitest medium; read-out: IC50 ATCC17978
Protocol: The in vitro antimicrobial activity of the compounds was alternatively determined according to the following procedure:
The assay used a 10-points Iso-Sensitest broth medium to measure quantitatively the in vitro activity of the compounds against A. baumannii ATCC 17978.
Stock compounds in DMSO were serially twofold diluted (e.g. range from 50 to 0.097 μM or from 10 to 0.020 μM final concentration) in 384 wells microtiter plates and inoculated with 49 μl the bacterial suspension in Iso-Sensitest medium to have a final cell concentration of ˜5×10^(5)CFU/ml in a final volume/well of 50 μl/well. Microtiter plates were incubated at 35±2° C.
Bacterial cell growth was determined with the measurement of optical density at X=600 nm each 20 minutes over a time course of 16h.
Growth inhibition was calculated during the logarithmic growth of the bacterial cells with determination of the concentration inhibiting 50% (IC50) and 90% (IC90) of the growth.
Table 1 provides the 50% growth inhibitory concentrations (IC50) in micromoles per liter of the compounds of present invention obtained against the A. baumannii strain ATCC17978.

[1] = Plasma precipitation screening assay; parameters: species or system rat; conditions: Wistar (Hanbrl:Wist SPF), rat, 10 min
Protocol: An aliquot (10 μL) of compound solubilized in physiological buffer or the formulation used for its parenteral administration in vivo, and of various dilutions thereof in phosphate-buffered saline (PBS), is mixed 1:1 with rat plasma. After 10 minutes incubation at room temperature the UV-absorption of the mixtures is measured and compared to absorption of blank plasma or plasma with vehicle solution. A significant (often concentration dependent) increase of absorption is indicative of precipitation.
Whole blood is obtained from WISTAR rats (Hanbrl:Wist SPF) under terminal anaesthesia after intraperitoneal injection of a pentobarbital solution (from animals euthanized for collection of tissue for other experimental purposes). Blood is collected in 1.2 mL of Heparin S-Monovette tubes (Sarstedt) for the preparation of heparin plasma.
The tubes are then centrifuged for 5 min at 5200 g at room temperature to isolate the plasma supernatant. The plasma is used in the assay within 48 h of collection (storage at 4° C.).
Test compounds are received as powder or formulated. When obtained as powder, they are solubilized in 0.9% aq. sodium chloride solution in order to get the highest indicated concentration to be tested. The solubility is visually checked and the solutions are filtered using 0.45 PVDF hydrophilic filters (Durapore®, Darmstadt, Germany), to remove possible solid impurities. pH of this initial solution might be measured in the filtered stock solutions, before proceeding to prepare a compound dilution series in PBS (1:1-dilution steps).
The assay is conducted in 384-well plates. 10 μL of rat plasma is added to 10 μL of the various compound solutions. The assay is performed in duplicate. 10 μL of vehicle (0.9% aq. sodium chloride solution, PBS) added to the plasma is used as a negative control. The absorption is measured at 362 nm.
Raw data obtained are absorbance data. The difference between absorbance of the sample and mean absorbance of vehicle is calculated. The minimal effect concentration (MEC) is defined as the lowest concentration giving an absorbance difference, OD362≥0.05.

SMILES	IC50 (A. baumannii ATCC 17978) [nM]	Plasma precipitation MEC [1] [µmol/L]
CN1C(=O)[C@H](CCCCN)NC(=O)[C@H](CCCN)NCc2nccnc2Sc2c(Cl)ccc(-c3ccc(C(=O)O)c(Cl)c3)c2CNC(=O)[C@@H]1Cc1c[nH]c2ccccc12 (racemic) [Example 8.01, 2-chloro-4-[rac-(11S,14S,17S)-14-(4-aminobutyl)-11-(3-aminopropyl)-25-chloro-17-(1H-indo1-3-ylmethyl)-16-methyl-12,15,18-trioxo-2-thia-4,7,10,13,16,19-hexazatricyclo[19.4.0.03,8]pentacosa-1(21),3,5,7,22,24-hexaen-22-yl]benzoic acid]	28	760
COc1cc(-c2ccc(Cl)c3c2CNC(=O)[C@H](Cc2c[nH]c4ccccc24)N(C)C(=O)[C@H](CCCCN)NC(=O)[C@H](CCCN)NCc2nccnc2S3)ccc1C(=O)O (racemic) [Example 8.03, 2-methoxy-4-[rac-(11S,14S,17S)-14-(4-aminobutyl)-11-(3-aminopropyl)-25-chloro-17-(1H-indo1-3-ylmethyl)-16-methyl-12,15,18-trioxo-2-thia-4,7,10,13,16,19-hexazatricyclo [19.4.0.03,8]pentacosa-1(25),3(8),4,6,21,23-hexaen-22-yl]benzoic acid]	78	760
CN1C(=O)[C@H](CCCCN)NC(=O)[C@H](CCCN)NCc2cccnc2Sc2c(Cl)ccc(-c3ccc(C(=O)O)c(S(C)(=O)=O)c3)c2CNC(=O)[C@@H]1Cc1c[nH]c2ccccc12 [Example 2.00, 4-[(11S,14S,17S)-14-(4-Aminobutyl)-11-(3-aminopropyl)-25-chloro-17-(1H-indol-3-ylmethyl)-16-methyl-12,15,18-trioxo-2-thia-4,10,13,16,19-pentazatricyclo[19.4.0.03,8]pentacosa-1(25), 3(8), 4,6,21,23-hexaen-22-yl]-2-methylsulfonyl-benzoic Acid]	73	950
CN1C(=O)[C@H](CCCCN)NC(=O)[C@H](CCCN)NCc2cccnc2Sc2c(Cl)ccc(-c3ccn4nc(C(=O)O)cc4c3)c2CNC(=O)[C@@H]1Cc1c[nH]c2ccccc12 [Example 2.01, 5-[(11S,14S,17S)-14-(4-aminobutyl)-11-(3-aminopropyl)-25-chloro-17-(1H-indo1-3-ylmethyl)-16-methyl-12,15,18-trioxo-2-thia-4,10,13,16,19-pentazatricyclo[19.4.0.03,8]pentacosa-1(25),3(8),4,6,21,23-hexaen-22-yl]pyrazolo[1,5-a]pyridine-2-carboxylic acid]	20	820
Cc1[nH]c2ccccc2c1C[C@H]1C(=O)NCc2c(cccc2-c2ccc(C(=O)O)cc2)Sc2ncccc2CN[C@@H](CCCN)C(=O)N[C@@H](CCCCN)C(=O)N1C [Example 6.00, 4-[(11S,14S,17S)-14-(4-Aminobutyl)-11-(3-aminopropyl)-16-methyl-17-[(2-methyl-1H-indol-3-yl)methyl]-12,15,18-trioxo-2-thia-4,10,13,16,19-pentazatricyclo[19.4.0.03,8]pentacosa-1(25), 3,5,7,21,23-hexaen-22-yl]benzoic Acid]	23	1090
Cc1[nH]c2ccccc2c1C[C@H]1C(=O)NCc2c(-c3ccn(CC(=O)O)c(=O)c3)ccc(Cl)c2Sc2ncccc2CN[C@@H](CCCN)C(=O)N[C@@H](CCCCN)C(=O)N1C [Example 7.01, 2-[4-[(1 S,14S,17S)-14-(4-Aminobutyl)-11-(3-aminopropyl)-25-chloro-16-methyl-17-[(2-methyl-1H-indol-3-yl)methyl]-12,15,18-trioxo-2-thia-4,10,13,16,19-pentazatricyclo[19.4.0.03,8]pentacosa-1(25), 3(8), 4,6,21,23-hexaen-22-yl]-2-oxo-1-pyridyl]acetic Acid]	46	1650
CN1C(=O)[C@H](CCCCN)NC(=O)[C@H](CCCN)NCc2nccnc2Sc2c(Cl)ccc(-c3ccc(C(=O)O)c(F)c3)c2CNC(=O)[C@@H]1Cc1c[nH]c2ccccc12 [Example 8.02, 4-[(11S,14S,17S)-14-(4-aminobutyl)-11-(3-aminopropyl)-25-chloro-17-(1H-indo1-3-ylmethyl)-16-methyl-12,15,18-trioxo-2-thia-4,7,10,13,16,19-hexazatricyclo[19.4.0.03,8]pentacosa-1(21),3,5,7,22,24-hexaen-22-yl]-2-fluoro-benzoic acid]	19	380
CN1C(=O)[C@H](CCCCN)NC(=O)[C@H](CCCN)NCc2cccnc2Sc2c(F)ccc(-c3ccc(C(=O)O)cc3)c2CNC(=O)[C@@H]1Cc1c[nH]c2ccccc12 [Example 9.00, 4-[(1 S,14S,17S)-14-(4-aminobutyl)-1-(3-aminopropyl)-25-fluoro-17-(1H-indol-3-ylmethyl)-16-methyl-12,15,18-trioxo-2-thia-4,10,13,16,19-pentazatricyclo[19.4.0.03,8]pentacosa-1(25), 3(8), 4,6,21,23-hexaen-22-yl]benzoic Acid]	20	870
CN1C(=O)[C@H](CCCCN)NC(=O)[C@H](CCCN)NCc2cccnc2Sc2c(F)ccc(-c3ccn(CC(=O)O)c(=O)c3)c2CNC(=O)[C@@H]1Cc1c[nH]c2ccccc12 [Example 9.01, 2-[4-[(11S,14S,17S)-14-(4-Aminobutyl)-11-(3-aminopropyl)-25-fluoro-17-(1H-indo1-3-ylmethyl)-16-methyl-12,15,18-trioxo-2-thia-4,10,13,16,19-pentazatricyclo[19.4.0.03,8]pentacosa-1(25),3(8),4,6,21,23-hexaen-22-yl]-2-oxo-1-pyridyl]acetic acid]	81	>1690
Cc1ccc(-c2ccc(C(=O)O)cc2)c2c1Sc1ncccc1CN[C@@H](CCCN)C(=O)N[C@@H](CCCCN)C(=O)N(C)[C@@H](Cc1c[nH]c3ccccc13)C(=O)NC2 [Example 10.00, 4-[(11S,14S,17S)-14-(4-Aminobutyl)-1-(3-aminopropyl)-17-(1H-indol-3-ylmethyl)-16,25-dimethyl-12,15,18-trioxo-2-thia-4,10,13,16,19-pentazatricyclo[19.4.0.03,8]pentacosa-1(25), 3(8), 4,6,21,23-hexaen-22-yl]benzoic Acid]	24	870
Cc1ccc(-c2ccn(CC(=O)O)c(=O)c2)c2c1Sc1ncccc1CN[C@@H](CCCN)C(=O)N[C@@H](CCCCN)C(=O)N(C)[C@@H](Cc1c[nH]c3ccccc13)C(=O)NC2 [Example 10.01, 2-[4-[(1S,4S,17S)-14-(4-Aminobutyl)-11-(3-aminopropyl)-17-(1H-indol-3-ylmethyl)-16,25-dimethyl-12,15,18-trioxo-2-thia-4,10,13,16,19-pentazatricyclo[19.4.0.03,8]pentacosa-1(25), 3(8), 4,6,21,23-hexaen-22-yl]-2-oxo-1-pyridyl]acetic Acid]	78	>1700
COc1ccc(-c2ccc(C(=O)O)cc2)c2c1Sc1ncccc1CN[C@@H](CCCN)C(=O)N[C@@H](CCCCN)C(=O)N(C)[C@@H](Cc1c[nH]c3ccccc13)C(=O)NC2 [Example 11.00, 4-[(11S,14S,17S)-14-(4-Aminobutyl)-11-(3-aminopropyl)-17-(1H-indol-3-ylmethyl)-25-methoxy-16-methyl-12,15,18-trioxo-2-thia-4,10,13,16,19-pentazatricyclo[19.4.0.03,8]pentacosa-1(25), 3(8), 4,6,21,23-hexaen-22-yl]benzoic Acid]	71	1720
CN1C(=O)[C@H](CCCN)NC(=O)[C@H](CCCN)NCc2cccnc2Sc2c(F)ccc(-c3ccc(C(=O)O)nc3)c2CNC(=O)[C@@H]1Cc1c[nH]c2ccccc12 [Example 14.01, 5-[(11S,14S,17S)-11,14-bis(3-Aminopropyl)-25-fluoro-17-(1H-indol-3-ylmethyl)-16-methyl-12,15,18-trioxo-2-thia-4,10,13,16,19-pentazatricyclo[19.4.0.03,8]pentacosa-1(25), 3(8), 4,6,21,23-hexaen-22-yl]pyridine-2-carboxylic Acid]	90	880
